Data reported in patent publication US20130079370A1, “Method for the Inhibition of Deubiquitinating Activity” (priority 2011, published 2013).

Legend:
[1] = system: orthotopic breast carcinomas (4T1); experiment: Orthotopic breast carcinoma (4T1) model; format: in vivo, BALB/c mice; details: 2.5 mg/kg i.p., 1 day on/3 days off
[2] = system: HCT-116 Bcl2+ colon carcinoma xenografts; experiment: HCT-116 Bcl2+ colon carcinoma xenografts in nude mice, tumor onset; format: in vivo; details: 5 mg/kg 4-5 times weekly for 3 weeks; log-rank P=0.0136; vs vehicle
Procedure: Animal experiments were conducted in full accordance with Swedish governmental statutory regulations on animal welfare under permission from local ethical committees. Animals were housed at a max of five per cage and provided with sterile water and food ad libitum. All mice were monitored and weighed daily. For the head and neck carcinoma model a 100-μl cell suspension containing 1×10^6 FaDu cells was injected subcutaneously into the right rear flank of the animals. After injection, tumor growth was measured daily with calipers and the tumor volume calculated by the formula L×W^2×0.44. When tumors had grown to a size of approximately 200 mm^3 (Day 0) mice were randomized to receive either vehicle (n=10) or b-AP15 5 mg/kg by subcutaneous injection s.c. (n=15) daily. […] Nineteen days after malignant cell injection all of the mice were killed and histopathological manifestations of liver, ovary (target organs for this model of tumor) were evaluated and compared between groups. […]
SCID mice bearing FaDu human tumor xenografts were randomized at tumor take (200 mm^3) and treated by daily subcutaneous injection with either vehicle (n=10) or 5 mg kg^−1 b-AP15 (n=15) for 10 days. […] Mice were treated with vehicle (n=6) or 5 mg kg^−1 b-AP15 (n=6) 4-5 times weekly for 3 weeks and monitored for tumor onset (log-rank, P=0.0136, hazard ratio=7.9). […]

HCT116 cells = format: cell-based; details: human
Source text: These findings indicate that high molecular weight ubiquitin substrate complexes accumulating as a result of DUB inhibition can generate strong cytotoxicity that is insensitive to Bcl-2 over-expression. [table]

[3] = system: FaDu head and neck carcinoma xenografts; experiment: FaDu head and neck carcinoma xenografts in SCID mice; format: in vivo
Procedure: In vitro proteasome activity assays were performed in black 96-well microtitier plates using human 20S proteasome (Boston Biochem) in reaction buffer (25 mM Hepes, 0.5 mM EDTA, 0.03% SDS) with Suc-LLVY-AMC, Z-LLE-AMC or Boc-LRRAMC used as substrates for proteasome activity. De-ubiquitinase activity assays were performed with human 19S RP (Boston Biochem) with ubiquitin-AMC as substrate. For FaDu xenograft studies a 100-μl-cell suspension containing 1×10^6 cells was injected subcutaneously into the flank of SCID. Upon tumor take mice were randomized into control or treatment groups and administered with 5 mg kg^−1 b-AP15 or vehicle. In vivo levels of apoptosis and cell death were determined from the detection of caspase cleaved and total levels of cytokeratin-18 in plasma using M30 Apoptosense® and M65 ELISA®s assays (Peviva). […]
Animal experiments were conducted in full accordance with Swedish governmental statutory regulations on animal welfare under permission from local ethical committees. […] All mice were monitored and weighed daily. […] After injection, tumor growth was measured daily with calipers and the tumor volume calculated by the formula L×W^2×0.44. […] Nineteen days after malignant cell injection all of the mice were killed and histopathological manifestations of liver, ovary (target organs for this model of tumor) were evaluated and compared between groups. […]

C=CC(=O)N1C/C(=C\c2ccc([N+](=O)[O-])cc2)C(=O)/C(=C/c2ccc([N+](=O)[O-])cc2)C1 [b-AP15, (3E,5E)-3,5-bis[(4-nitrophenyl)methylidene]-1-(prop-2-enoyl)piperidin-4-one]
difference in weight at the start and the endpoint between control and treated animals [1]: +5.8%
hazard ratio, disease free survival [2]: 7.9
Fold induction DNAJB1 (Hsp40B1) (HCT116 cells): 22 fold
Fold induction HSPA1B (HCT116 cells): 21 fold
treated/control tumor volume, T/C ([3]; 5 mg/kg s.c. daily for 10 days, p=<0.001): 0.4
difference in weight at the start and the endpoint between control and treated animals ([3]; FaDu xenograft): −1.3%
